# Where two headings read alike, the source gives them in different places.
# Legend:
# [1] = pKa measurements of individual IAJD molecules by titration; type: physicochemical; details: ethanol saturated with NaCl, titrated with 0.1 M aqueous HCl; Table 15; individual IAJD molecule, titration
# In short: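 pKa derived by half-equivalence-point analysis of a pH-meter titration curve: 0.1 M HCl added in 7.5 μL increments to a 1.5 mg/mL solution of each molecule in ethanol saturated with NaCl.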
# [2] = system: HEK293T cells; details: Table 16, IAJDs marked a (Zhang et al., J. Am. Chem. Soc. 2021); HEK 293T cells, 125 ng/well, n=3; cited from earlier work
# [3] = system: BALB/c mice; details: cited from earlier work
# [4] = Table 16, IAJDs marked a (Zhang et al., J. Am. Chem. Soc. 2021); IAJD 4 mg/mL, Luc-mRNA 0.10 mg/mL, acetate buffer 10 mM pH 4.0; cited from earlier work
# [5] = Stability of DNPs by DLS after storage at 5° C.; type: physicochemical; parameters: key: Excellent: the original sizes and distribution remains almost the same after storage; Good: the original relatively big sizes became smaller or broad size distribution became narrower; Not stable: the original relatively big sizes or broad size distribution remained almost the similar level, or the original relatively small sizes became bigger or narrow size distribution became broader; details: storage time 2 days; CIAJD 4.0 mg/mL; CLuc-mRNA 0.1 mg/mL; acetate buffer pH 4.0
# Experimental: The stability of the DNPs as assayed by DLS. All the samples are prepared in acetate buffer. The stabilities of the constructs were ranked: Excellent (in bold)—the original sizes and distribution remains almost the same after storage; Good—the original relatively big sizes became smaller or broad size distribution became narrower; Not stable—the original relatively big sizes or broad size distribution remained almost the similar level, or the original relatively small sizes became bigger or narrow size distribution became broader.
# [6] = Table 18, symmetric IAJDs, results available in the literature
# [7] = Table 20, corresponding symmetric IAJDs (literature per Table 18)
Compound,pKa [1],Ranking of stability [5],Luminescence [2],"In vivo activity (total flux, p/s) [3, 6]","In vivo activity (total flux, p/s) [3, 7]",PDI [4],"Size (d, nm) [4]"
"CCCCCCCCCCCCOc1cc(COC(=O)CCCN2CCN(CCO)CC2)cc(OCCCCCCCCCCCC)c1 [IAJD 71, 3,5-Bis(dodecyloxy)benzyl 4-(4-(2-hydroxyethyl)piperazin-1-yl)butanoate]",6.38,,"473,548",3.79 × 10^7 p/s,3.79 × 10^7 p/s,0.451,237 nm
"CCCCCCCCCCCCCCCCCCOc1cc(COC(=O)CCCN2CCN(C)CC2)cc(OCCCCCCCCCCC)c1 [IAJD 81, 3-(Octadecyloxy)-5-(undecyloxy)benzyl 4-(4-methylpiperazin-1-yl)butanoate]",6.19,,"206,161",,,0.287,111 nm
"CCCCCCCCCCCCCCCCOc1cc(COC(=O)CCCN2CCN(C)CC2)cc(OCCCCCCCCCCC)c1 [IAJD 86, 3-(Hexadecyloxy)-5-(undecyloxy)benzyl 4-(4-methylpiperazin-1-yl)butanoate]",6.24,,"47,066",,,0.234,91 nm
"CCCCCCCCCCCCCCCCCCOc1cc(COC(=O)CCCN2CCN(CCO)CC2)cc(OCCCCCCCCCCCCCCCCCC)c1 [IAJD 99, 3,5-Bis(octadecyloxy)benzyl 4-(4-(2-hydroxyethyl)piperazin-1-yl)butanoate]",6.31,,,4.49 × 10^6 p/s,4.49 × 10^6 p/s,,
"Diheptyl 5,5′-((5-(((4-(4-methylpiperazin-1-yl)butanoyl)oxy)methyl)-1,3-phenylene)bis(oxy)) dipentanoate [IAJD 85]",,Excellent,,,,,

# The next lines start with results.
pKa [1],Ranking of stability [5],Compound,Luminescence [2],"In vivo activity (total flux, p/s) [3, 6]","In vivo activity (total flux, p/s) [3, 7]",PDI [4],"Size (d, nm) [4]"
6.5,,"CCCCCCCCCCCCCCOc1cc(COC(=O)CCCN2CCN(C)CC2)cc(OCCCCCCCCCCC)c1 [IAJD 105, 3-(Tetradecyloxy)-5-(undecyloxy)benzyl 4-(4-methylpiperazin-1-yl)butanoate]",85,,,0.294,94 nm
6.38,,"CCCCCCCCCCCCCCCCOc1cc(COC(=O)CCCN2CCN(C)CC2)cc(OCCCCCCCCCCCC)c1 [IAJD 106, 3-(Dodecyloxy)-5-(hexadecyloxy)benzyl 4-(4-methylpiperazin-1-yl)butanoate]",309,,,0.275,105 nm
6.42,,"CCCCCCCCCCCCCCCCCCOc1cc(COC(=O)CCCN2CCN(C)CC2)cc(OCCCCCCCCCCCC)c1 [IAJD 107, 3-(Dodecyloxy)-5-(octadecyloxy)benzyl 4-(4-methylpiperazin-1-yl)butanoate]","93,745",,,0.279,146 nm

# From patent US20240252677A1, “ONE-COMPONENT DELIVERY SYSTEM FOR NUCLEIC ACIDS” (The Trustees of the University of Pennsylvania, priority 2021, published 2024)
